We go through 13 compounds from patent publication US20070190651A1, “Myogenic Development and Protection of Stem Cells Against Inflammation and Apoptosis By Statins and Isoprenoid Pathway Inhibitors” (Board of Regents of the University of Texas System, priority 2006, published 2007).

For data set [1] the following is noted: animals; cited from earlier work.
For data set [2], the system named is mouse peritoneal macrophages. Briefly: TUNEL staining of acLDL-loaded mouse peritoneal macrophages. The format is cell-based. Particulars: for number of TUNEL positive cells: acLDL-preloaded macrophages, agent alone, over incubation time. The method, then: FIG. 15 is a graph showing TUNEL staining of mouse peritoneal macrophages. Macrophages loaded with acLDL were treated with CP-113,818 (▪), CP-113,818 plus U18666A (♦), or U18666A in medium containing 0.2% BSA (□). After treatment the cells were fixed and nuclear DNA fragments were labeled using a fluorescent TUNEL assay.
It was tested whether cholesterol accumulation can induce apoptosis in cells treated with the acyl coenzyme-A:cholesterol acyltransferase (ACAT) inhibitor CP-113,818. In situ labeling of DNA fragments were analyzed in murine macrophages treated with the inhibitors using the TUNEL technique. […] Few TUNEL positive cells were detected in untreated control and in cultures treated with CP-113,818 plus U18666A for 24 h. Thus, inhibition of cholesterol transport with U18666A blocked the apoptotic effect of the ACAT inhibitor.

Data set [3] concerns iNOS. Put plainly: Nitrite production (Griess reaction) in H9c2 cardiac myoblasts. The format is cell-based, rat. Particulars: for effect on nitrite production in cells treated with simvastatin plus IL-1α: added to simvastatin + IL-1α 20 ng/mL. The method, then: Cell cultures. H9c2 cells purchased from American Type Culture Collection (ATCC, Rockville, Md.) are spontaneously immortalized ventricular myoblasts from the rat embryo, with preservation of several electrical and biochemical characteristics found in adult cardiomyocytes. […] After certain time intervals, 100 μL/well culture media were collected for determination of nitrite production. Assay for NO Production. The activity of iNOS was determined in the culture medium by assaying nitrites, taken as an index of NO production, using the Griess reagent (1% sulphanilic acid and 0.1% N-[1-naphtyl] ethylenediamine-HCl in 5% phosphoric acid) as reported previously (4,18,19). Equal volumes of medium and Griess reagent were mixed, and the purple products quantified spectrophotometrically at 550 nm. Nitrite concentrations were determined from a linear standard curve constructed with known concentrations of sodium nitrite (0 to 40 μmol/L nitrite). Nitrite Assays. Nitrite, a stable end-product of nitric oxide, was measured by using Griess reagent (1% sulphanilic acid and 0.1% N-[1-naphtyl] ethylenediamine-HCl in 5% phosphoric acid). Equal volumes of medium and Griess reagent were mixed, and the resulting purple product quantified by spectrophotometric assay at 550 nm. Nitrite concentrations were calculated from a linear standard curve constructed with known concentrations of sodium nitrite (0-14 μmol/L nitrite) (19).
Background: Griess reagent forms a coloured azo dye with nitrite.

The subject of data set [4] is iNOS. Briefly: Immunoblotting for iNOS protein in cytokine-stimulated H9c2 cardiac myoblasts. The format is cell-based, rat. The note with it: for effect on simvastatin inhibition of cytokine-induced iNOS protein expression: added to simvastatin + IL-1α or TNF-α. The procedure: Cell cultures. H9c2 cells purchased from American Type Culture Collection (ATCC, Rockville, Md.) are spontaneously immortalized ventricular myoblasts from the rat embryo, with preservation of several electrical and biochemical characteristics found in adult cardiomyocytes. They were cultured in DMEM medium (ATCC) supplemented with 10% heat-inactivated fetal bovine serum (FBS) in 95% air and 5% CO2 at 37° C. […] After certain time intervals, 100 μL/well culture media were collected for determination of nitrite production.
Immunoblotting. Total proteins were isolated from rat cardiac myoblasts (H9c2 cells) or embryonic stem cells in an ice-cold lysis buffer containing 10 mmol/L Tris (tris(hydroxymethyl)aminomethane) (pH 7.4), 1% sodium dodecyl sulfate (SDS) and 1× protease inhibitor (1 mmol/L sodium orthovanadate). Proteins (15 μg/lane) were separated under the reducing conditions (125 mM Tris pH 6.8, 4% SDS, 10% glycerol, 0.006% bromophenol blue, 2% β-mercaptoethanol) by electrophoresis onto 5-10% SDS-polyacrylamide gel and electro-blotted to nitrocellulose membranes (Osmonics, Westborough, Mass.). The membranes were reversibly stained with Ponceau red (Sigma) to verify equal protein loading and/or transfer. After blocking in Tris-buffered saline (0.2 M Tris and 8% NaCl) containing 5% non-fat powdered milk and 0.1% Tween 20 for 1 hour at room temperature, the membranes were incubated overnight at 4° C. with following primary antibodies to (a) iNOS (Transduction Laboratories, Lexington, Ky.; BD Biosciences); (b) NF-κB p65/rel (Santa Cruz Biotechnologies, Santa Cruz, Calif.); (c) ser^32-phosphorylated inhibitor IκBα (Santa Cruz); (d) Bad (BD Biosciences, San Jose, Calif.); (e) Bcl-xL (BD Biosciences); (f) proliferating cell nuclear antigen (PCNA; BC Biosciences); (g) ryanodine receptor (Santa Cruze Biotechnology, Inc., Santa Cruz, Calif.); (h) α-sarcomeric actinin (Sigma); (i) myocardin A (developed by immunizing rabbits with a synthetic myocardin A peptide); (j) Tie-2 (Santa Cruz); (k) manganese superoxide dismutase (Santa Cruz); and (1) β-tubulin (Sigma). The blots were incubated with horseradish peroxidase-coupled secondary antibodies, washed and developed by using a SuperSignal West Pico Chemiluminescent Substrate Kit (Pierce, Rockford, Ill.). Intensity of each immunoreactive protein band was quantified by densitometric analysis. Cytokine-stimulated RAW 264.7 cells (Transduction Laboratories, Lexington, Ky.) were used as positive controls.
For orientation: Immunoblotting shows a protein as a band on a membrane.

The next data set relates to hESC-derived EB. Briefly: hESC embryoid body formation with proteasomal inhibitor. Particulars: MG132 at 100 nm in hanging drops, then regular culture 1-2 days. The format is cell-based, human. The procedure: FIG. 13 is a pair of photomicrographs showing hESC-derived EB after treatment with MG132 for 2 days. a, untreated and b, treated.
To determine whether protein ubiquitination has any impact on EB formation, hESCs were cultured in hanging-drops with the proteasomal inhibitor MG132 at 100 nm, and then plated in regular culture for 1-2 days.

A further data set concerns NF-κB p65/RelA. Briefly: Immunoblotting for p65/RelA subunit of NF-κB, total cellular or nuclear proteins of H9c2 cells. The format is cell-based, rat. The note with it: Y-27632 10^−4 mol/L.
A further data set deals with Rho kinase. Particulars: cited from earlier work.
In the next data set the test system is β-adrenergic receptors. Briefly: Edge-motion detection of mESC-derived contractile myogenic cells. The format is cell-based, murine. The method, then: FIG. 11 is a series of graphs showing edge-motion detection of mESC-derived contractile myogenic cells untreated (upper) or treated with isoproterenol (10 ng/ml) in the absence (middle) or presence (lower) of propanolol (25 ng/ml).
hESC grown in DMEM media with 10% fetal bovin serum and a group of growth factors were induced to differentiate in a hang-drop 3D cell culture system. hESCs from two (H1 or H9) lines were cultured with a mouse fetal fibroblast feeder layer. After forming EBs in the hanging-drop 3D system they were replated in 12-well plates. […] Surrounding the beating colonies, the cells developed a blood vessel-like structure (FIG. 10). Using the edge-motion detection technique, a single beating myogenic cell within the developing EBs was recorded. This provides a functional marker showing the differentiational potential in cardiomyogenesis.

Entries after “also recorded” stand apart in the source; their conditions may differ. Residues, ends and D or L forms follow the SMILES beside them. *: point of attachment. Cbz = O=C(OCc1ccccc1)*

Experimental for NF-κB p65/RelA: Immunoblotting. Total proteins were isolated from rat cardiac myoblasts (H9c2 cells) or embryonic stem cells in an ice-cold lysis buffer containing 10 mmol/L Tris (tris(hydroxymethyl)aminomethane) (pH 7.4), 1% sodium dodecyl sulfate (SDS) and 1× protease inhibitor (1 mmol/L sodium orthovanadate). Proteins (15 μg/lane) were separated under the reducing conditions (125 mM Tris pH 6.8, 4% SDS, 10% glycerol, 0.006% bromophenol blue, 2% β-mercaptoethanol) by electrophoresis onto 5-10% SDS-polyacrylamide gel and electro-blotted to nitrocellulose membranes (Osmonics, Westborough, Mass.). The membranes were reversibly stained with Ponceau red (Sigma) to verify equal protein loading and/or transfer. […] Intensity of each immunoreactive protein band was quantified by densitometric analysis.

On to `Clc1ccccc1CNCC1CCC(CNCc2ccccc2Cl)CC1` (centres unmarked) [AY 9944], for which the teratogenic effect entry in data set [1] was “holoprosencephalic brain anomalies”.

Regarding `O=C(O)c1ccc(CCN2CCN(C/C=C/c3ccc(Cl)cc3)CC2)cc1` [BM 15766], the teratogenic effect entry in data set [1] is “holoprosencephalic brain anomalies”.

In the case of `CCCCCCCC[C@H](SCCCCCC)C(=O)Nc1c(SC)cc(C)nc1SC` [CP-113,818], in data set [2], the “number of TUNEL positive cells” value was “increase in the number of TUNEL positive cells”.

With `CC(C)=CCC/C(C)=C/CC/C(C)=C/COP(=O)(O)OP(=O)(O)O` [FPP, farnesylpyrophosphate], the “effect on nitrite production in cells treated with simvastatin plus IL-1α” value (from here on “effect on nitrite production”) in the data set on iNOS [3] is on record as “did not alter nitrite accumulation”.

Consider `CC(C)=CCC/C(C)=C/CC/C(C)=C/CC/C(C)=C/COP(=O)(O)OP(=O)(O)O` [GGPP, geranylgeranylpyrophosphate], for which the “effect on nitrite production” value in the data set with iNOS [3] is given as “attenuates the simvastatin inhibitory effect; also recorded: reversed the simvastatin-mediated suppression”. In the data set with iNOS [4] (H9c2), the “effect on simvastatin inhibition of cytokine-induced iNOS protein expression” value was “reversed the simvastatin-mediated suppression; also recorded: prevented the inhibitory effect of simvastatin; also recorded: attenuates the simvastatin inhibitory effect”.

Take `CC(C)C[C@@H](C=O)NC(=O)[C@H](CC(C)C)NC(=O)[C@H](CC(C)C)NC(=O)OCc1ccccc1` [MG132] (Cbz-Leu-Leu-Leu-aldehyde): the “EB morphology / cell differentiation” value in the data set with hESC-derived EB was “spread out and surrounded by differentiated cells”; with hESC-derived EB (listed as MG-132) it was “helped the cell differentiation”.

As to `CCN(CC)CCO[C@H]1CC[C@@]2(C)C(=CC[C@@H]3[C@@H]2CC[C@]2(C)C(=O)CC[C@@H]32)C1` [U18666A], in data set [2] (U18666A simultaneously with CP-113,818), the “number of TUNEL positive cells with CP-113,818 co-treatment” value is “greatly reduced”. Further, the “number of TUNEL positive cells” value in data set [2] is reported as “no effect on the number of cells bearing this marker of apoptosis”.

For the compound `C[C@@H](N)[C@H]1CC[C@H](C(=O)Nc2ccncc2)CC1` [Y-27632], in the data set on iNOS [3] (IL-1α, Y-27632 10^−6 to 10^−5 mol/L, no simvastatin), the “nitrite production (iNOS activity) in cytokine-treated cells” value is recorded as “enhances NO production; also recorded: dose-dependently increased the iNOS activity”. For the same compound, the “effect on nitrite production” value in the data set on iNOS [3] is on record as “reversal of the statin-induced nitrite reduction; also recorded: reversed the statin inhibitory effect on iNOS activities”. The “effect on simvastatin inhibition of cytokine-induced iNOS protein expression” value with iNOS [4] (H9c2) is reported as “almost abolished the inhibitory effect of simvastatin”. Further, the “cytokine-induced iNOS protein expression in the absence of simvastatin” value with iNOS [4] (H9c2, cytokine-stimulated, no simvastatin) was “did not alter cytokine-induced iNOS protein expression”. Also, the “nuclear NF-κB (p65) translocation in presence of IL-1α” value in the data set with NF-κB p65/RelA is “no major effect on the nuclear NF-κB translocation”.

As to `CC(C)c1c(C(=O)Nc2ccccc2)c(-c2ccccc2)c(-c2ccc(F)cc2)n1CC[C@@H](O)C[C@@H](O)CC(=O)O` [atorvastatin], the Rho kinase activity entry in the data set with Rho kinase is reported as “inhibit the Rho kinase activity”.

Consider `CC(C)CCC[C@@H](C)[C@H]1CC[C@H]2[C@@H]3CC=C4C[C@@H](O)CC[C@]4(C)[C@H]3CC[C@]12C` [cholesterol], for which the “effect of exogenous cholesterol on the statin effect on iNOS expression” value in the data set on iNOS [4] is on record as “does not prevent the statin effect”.

In the case of `CC(C)NCC(O)c1ccc(O)c(O)c1` (centres unmarked) [isoproterenol], in the data set on β-adrenergic receptors (mESC-derived EBs, isoproterenol 10 ng/ml), the “contraction of beating myocytes” value is “marked increased contraction in both frequency and ampltitute”.

Turning to `CC(C)NCC(O)COc1cccc2ccccc12` (centres unmarked) [propanolol], the “effect on isoproterenol stimulation of contraction” value in the data set on β-adrenergic receptors (propanolol 25 ng/ml with isoproterenol 10 ng/ml) is reported as “almost abolished the isoproterenol stimulatory effect”.

`CCN(CC)CCOc1ccc(C(O)(Cc2ccc(Cl)cc2)c2ccc(C)cc2)cc1` (centres unmarked) [triparanol]: the teratogenic effect result in data set [1] is “holoprosencephalic brain anomalies”.
